Assay [1] relates to photoreceptor cell death in response to RD. The experiment in a line: Mouse model of retinal detachment, TUNEL labeling of the ONL. Format: in vivo, mice.
Description: Briefly, RD was created in the right eye of adult mice (8-12 weeks), as previously reported (Hisatomi, T. et al., Am J Pathol, 2001, 158:1271-1278), with minor modification. Briefly, mice were anesthetized using a mixture of ketamine (80 mg/kg) and xylazine (8 mg/kg). Deep anesthesia was confirmed by a toe pinch test. One drop of proparacaine hydrochloride (0.5%) (Akorn, 17478-263-12) was administered to each eye. A self-sealing scleral incision was made using a 30 G needle. Next, an anterior chamber puncture was performed from the cornea to reduce intraocular pressure. A 33 G needle attached to a Hamilton 10 μl syringe was inserted into the subretinal space, and 4 μl sodium hyaluronate (Provisc®, Alcon) was gently injected to enlarge the RD (fundus Image of a retinal detachment; FIG. 7A) (Matsumoto, H. et al., J Vis Exp, 2013, (79)). After the injection, glue (Webglue™) was put on the scleral wound and the conjunctiva reattached to the original position. Photoreceptor apoptosis was assessed (12-72 hours post detachment) by identifying TUNEL positive cells in cross sections (FIGS. 7C and D).
Twenty-four hours post-injury, retinas were isolated and cross-sections were prepared for staining with DAPI (a nuclear marker) and TUNEL (a cell death marker). The mid-point of the retinal arc between the optic nerve and the edge of the retina was quantified for TUNEL positive cells.
The model of retinal detachment was performed precisely as described above with one modification: Prior to injecting the provisc 1 μl of the purified C3 antibody (0.1 μg) or IgG2a isotype control (Life Technologies, 02-9688) was injected into the sub-retinal space through the scleral tunnel. The eyes were enucleated 24 hours after RD and processed for TUNEL labeling as described earlier.
Assay [2] concerns Fb. The conditions noted are these: retina 24 hours after RD, mice kept in 75% oxygen vs room air.
Description: RNA was isolated using an RNeasy micro kit (Qiagen, 74004, Valencia, Calif.) for LCM samples or an RNeasy mini kit (Qiagen, 74106, Valencia, Calif.) for whole retina. Total RNA was measured using a nanodrop spectrophotometer (Thermo Scientific, Nanodrop 2000, Waltham, Mass.) then each sample was normalized prior to transcribing cDNA. cDNA was transcribed using superscript III (Invitrogen, 18080-044, Carlsbad, Calif.) then one microliter of cDNA was used for each RTPCR reaction. […] Primers for Cd55 using photoreceptors isolated by LCM were obtained through Integrated DNA Technologies using their online Primer Quest design tool and importing the NCBI ID number for the sequence (Forward 5′-[sequence]-3′ (SEQ ID NO: 5) and Reverse 5′-[sequence]-3′ (SEQ ID NO: 6)). RTPCR was run in triplicate and the average of each CT value used for analysis. All CT values were normalized to beta actin from each sample as an internal control. Final values were determined using the MET method.
After 24 hours the mice were anesthetized under a heavy dose of avertin (2,2,2 tribromo ethanol, Sigma, T4, 840-2) at a working concentration of 10 mg/ml and injected at a dose of 0.25-0.5 mg/gram intraperitoneally. In one group the eyes were enucleated and frozen in OCT compound using isopropanol chilled by dry ice. The eyes were then processed for TUNEL labeling and quantified as described above. […]

“Also recorded” adds a separate entry of the source.

Take `O=O` [75% oxygen, oxygen]: in assay [1] (mice housed 24 hours after RD in a 75% oxygen chamber vs room air (approximately 21% oxygen)), the “cell death (TUNEL positive cells in the ONL)” value is given as “significant reduction in cell death”. The “Fb expression, alternative pathway activation” value in assay [2] is given as “significantly less Fb expression”. Consider cobra venom factor [CVF], for which, in assay [1] (C3-/- mice, sub-retinal injection prior to Provisc, 24 hours after RD, vs PBS), the “photoreceptor cell death (TUNEL positive cells in the ONL)” value is “significant up-regulation of photoreceptor cell death; also recorded: increased photoreceptor cell death after RD”.

The values above are taken from patent publication US20160237146A1, “Methods of Preventing or Reducing Photoreceptor Cell Death” (MASSACHUSETTS EYE AND EAR INFIRMARY, priority 2013, published 2016).
